Results taken from US5679641A, “Peptides of human P53 protein for use in human T cell response inducing compositions, and human P53 protein-specific cytotoxic t-lymphocytes” (Rijksuniversiteit Leiden, priority 1992, dated 1997).
No end group written: not given here.

What was measured:
HLA-A2.1 molecule = target: T1, HLA-A2.1 molecule (Homo sapiens, UniProt P04439, D140Y/D185E/D98H/E176V/E277Q/G131W/G231S/I119V/I121R/I166T/I218V/L300P/L318F/N151K/N90K/P208A/P217A/Q86G/Q94H/R138H/R169H/T345S); experiment: Peptide binding: upregulation of HLA-A2.1 expression on (174.CEM) T2 cells, FACScan; assay type: cell-based; settings: for fluorescence ratio (i.e. binding ability): 200 μg/ml peptide, 16 hours at 37° C., (174.CEM) T2 cells, antibody BB7.2, mean fluorescence with peptide divided by without, positive when ratio of 1.2 is reached
T1 construct: endogenous in cells; host or cells: 174.CEM T2 (antigen-processing-defective human T x B hybrid cell line, provided by P. Cresswell)

HLA-A2.1 positive PBL = experiment: Induction of primary in vitro CTL response with peptide loaded 174CEM.T2 cells, cloning of CTL; assay type: cell-based, human; settings: peptide loaded antigen processing defective cell line 174.CEM T2, peptide 80 μg/ml, PBL of healthy HLA-A2.1 positive donor
Procedure: Responder T cells are included in mononuclear white blood cells (PBL) of an HLA-A2.1 positive healthy donor. The PBL were separated from a buffycoat by Ficoll procedure (LYMPHOPREP of Nycomed-pharma, Oslo, Norway, cat. no. 105033) and washed two times in RPMI 1640 (Gibco Paislan, Scotland, cat. no. 041-02409) supplemented with 30% pooled human serum (tested for its capacity to support mixed lymphocyte cultures), 2 mM glutamine (ICN Biochemicals, Inc., Costa Mesa, Calif., USA, cat. no. 15-801-55), penicillin (100 IU/ml, Brocades Pharma, Leiderdorp, The Netherlands), kanamycin ([…], Sigma, St. Louis, Mo., USA).
174CEM.T2 (T2) cells in a concentration of 2×10^6 per ml were incubated for 13 hours at 37° C. in a T25 flask (Falcon, Becton & Dickinson, Plymouth, England, cat. no. 3013) in serum-free ISCOVE's medium (Biochrom KG, Seromed, Berlin, Gemany, cat. no. F0465) with glutamine (2 mM, ICN Biochemicals Inc., Costa Mesa, Calif., USA, cat. no. 15-801-55) and antibiotics as mentioned under 2 and individual p53 peptides at a final concentration of 80 μg/ml. Subsequently the T2 cells were spun down and treated at a density of 20×10^6 cells/ml with Mitomycin C (final concentration 50 μg/ml) in serum-free RPMI 1640 (manufacturer see 2) medium during one hour at 37° C. Thereafter the T2 cells were washed three times in RPMI 1640. […]

Row | fluorescence ratio (i.e. binding ability) (HLA-A2.1 molecule) | binding to HLA-A2.1 molecule (in words) (HLA-A2.1 molecule; 174.CEM T2 cells, mean HLA-A2.1 fluorescence) | Molecule | primary in vitro human CTL response against the peptide (HLA-A2.1 positive PBL)
1 | 1.4 | – | CSCC[C@H](NC(=O)[C@H](CCCCN)NC(=O)[C@H](CC(N)=O)NC(=O)[C@H](CC(C)C)NC(=O)[C@H](C)N)C(=O)N[C@@H](Cc1ccccc1)C(=O)N[C@@H](CS)C(=O)N[C@@H](CCC(N)=O)C(=O)N[C@@H](CC(C)C)C(=O)N[C@@H](C)C(=O)O [compound 11, ALNKMFCOLA] | –
2 | 1.2 | – | ALNKMFYQL [compound 27] | –
3 | 1.3 | – | KLFCQLAXT (KLFCQLAKT) [compound 29, residues 132-140 of human mp53 (mutant p53)] | –
4 | 1.7 | strong ability to bind to HLA-A2.1 | LLPENNVLS [compound 3, residues 25-33 of human p53] | possible so far to generate a primary in vitro human CTL response
